Reference: US7820624B2, “Peptide ligands” (ICH Productions Limited, priority 2003, dated 2010)

Columns and labels:
[1] = system: human monocyte-derived immature dendritic cells; experiment: Titration of phage clone binding to human dendritic cells; conditions: 2×10^11 phage on 5×10^4 cells, 1 hour on ice
Method: Phage were recovered and titred from each round of selection as follows. 2×10^11 Blocked phage were added to 5×10^4 blocked monocyte-derived immature dendritic cells for 1 hour on ice before washing cells three times with 0.05% Tween20-PBS, eluting phage with TBS pH5.5, and lysing cells to harvest the phage remaining bound. The numbers of phage harvested by cell lysis were calculated as plaque forming units (pfu). […] Sequencing of the bound phage shown in FIG. 1 identified the peptides as APSNSTA [SEQ. ID. NO.:15], QLLTGAS [SEQ. ID. NO.:30], TARDYRL [SEQ. ID. NO.:31], FQSQYQK [SEQ. ID. NO.:26], PLMPSLS [SEQ. ID. NO.:24], FPRAPHH [SEQ. ID. NO.:32], MASISMK [SEQ. ID. NO.:27], DWWHTSA [SEQ. ID. NO.:28], SHVKLNS [SEQ. ID. NO.:29], and SPALKTV [SEQ. ID. NO.:16].
(§1) The dendritic cells were spun down at 2000 rpm, for 5 min at 4° C., and resuspended in the phage solution, allowing the phage to bind for 1 hour on ice with occasional mixing. The cells were then washed in PBS-Tween 20 (0.05%) three times before eluting phage with 166 μl TBS pH5.5. for 10 min on ice. The eluate was neutralised with […] Tris-HCl pH 8, the cells were spun down, and the supernatant removed to be stored as eluate. The cell pellet was resuspended in 200 μl of cell lysis buffer (30 mM Tris-HCl, 1 mM EDTA pH 8.0) for 1 hour on ice, with shaking. The cell debris was removed by spinning at 5000 rpm for 5 min and the supernatant recovered. The phage in the eluate and the cell lysate were titred by measuring plaque forming units (pfu) in E. coli ER2738 as described in the NEB C7C technical bulletin.
(§2) The titration of phage clone binding was carried out using human and mouse dendritic cells, with binding to plastic as a control. The human cells were obtained from donors as stated below.

mouse dendritic cells = experiment: Titration of phage clone binding to mouse dendritic cells; conditions: 2×10^11 phage
Method: as §1, §2

[2] = Titration of phage clone binding to blocked plastic (control)
Method: as §1, §2

HMEC-1 cells = experiment: LID transfection, luciferase reporter assay, HMEC-1; format: cell-based, human; conditions: LID with lipofectin
Method: Transfection complexes comprising lipid, peptide and DNA were prepared. The lipid component was lipofectin (Invitrogen Ltd, Paisley, UK), the peptide component was a peptide A to F, 6 or 6J derivative, as described above, and the DNA was the plasmid pCILuc (Promega UK Ltd, Southampton). In the transfection complex, peptide to DNA charge ratios (+/−) were used at 3:1, 5:1 and 7:1. The lipid component was maintained at a constant proportion, by weight, relative to DNA of 0.75:1. Prior to making transfection complexes the lipid component was diluted to a concentration of 15 μg or 30 μg per ml, the peptide was prepared at 0.1 mg/ml and the DNA was at 40 μg per ml. All dilutions were performed with OptiMEM reduced serum tissue culture medium (Life Technologies). Transfection complexes were made by mixing of components in the order 1) lipid then 2) peptide and finally 3) DNA, then diluted with OptiMEM to a concentration relative to the DNA component of 0.25 μg DNA per […]
For transfection of these types of cell i.e. HMEC, HAEo-, N2a and HepG2, 1×10^4 cells were seeded overnight in 96 well plate. 200 μl of the suspension of the transfection complex prepared according to (b) above was added to each well. The suspension was applied to cells within 5 minutes of preparation. […]

Neuro-2A cells = experiment: Adenoviral transduction of Neuro-2A cells; format: cell-based, mouse; conditions: 10,000 particles per cell in OptiMEM
Method: Day 6 dendritic cells (see Example 1(v) above), or mouse bone marrow derived dendritic cells or mouse Sca1+ve stem cells, see (i) and (ii) above, were plated at 5×10^4 cells per well in a 48 well plate in 500 μl complete medium and allowed to settle for 3 hours at 37° C. Transductions were carried out in complete media, with virus being added at 100,000 viral particles/cell for 24 hours. Cells were harvested by scraping, spun down at 650 g (2000 rpm) for 5 min, resuspended in 300 μl PBS, and kept on ice before analysis. Viral transduction as determined by percentage of GFP positive cells was measured by FACS analysis. To measure percentage viability, 10 μl of 7-amino-actinomycin D (7AAD; Sigma, Poole, Dorset) was added immediately prior to analysis. Viral transduction of macrophages was carried out at 10,000 particles/cell in medium containing 2.5% FCS. […] Cells were then washed twice in PBS, trypsinised, triplicate wells pooled, spun down at 350×g for 5 min and resuspended in 300 μl PBS before analysis by flow cytometry where cell viability was to be measured, 10 μl 7AAD was added just prior to analysis.
For transduction of these other cell types, cells were seeded overnight at 5×10^4 cells per well in 24 well plates in the appropriate media. […] Where cell viability was to be measured, 10 μl 7-amino-actinomycin D (7AAD; Sigma, Poole, Dorset) was added just prior to analysis. […]

Substance | Phage harvested by cell lysis (pfu), human donor S [1] | Phage harvested by cell lysis (pfu), human donor one [1] | Phage harvested by cell lysis (pfu), human donor two [1] | Phage titre (pfu), mouse DCs (mouse dendritic cells) | Phage titre (pfu), plastic [2] | Transfection efficiency (luciferase activity per mg protein) relative to peptide 6 (HMEC-1 cells) | Transduction, % GFP-positive cells (Neuro-2A cells)
APSNSTA (Synthetic peptide binding to dendritic cells) | 6480 pfu ×10^3 | 1920 pfu ×10^3 | 460 pfu ×10^3 | 480 pfu ×10^3 | 480 pfu ×10^3 | one and a half times that of peptide 6 | –
SHVKLNS (Synthetic peptide binding to dendritic cells) [listing 1 of 2 here] | – | – | – | – | – | – | 63.5%
SHVKLNS (Synthetic peptide binding to dendritic cells) [listing 2 of 2 here] | 7280 pfu ×10^3 | 2620 pfu ×10^3 | 1160 pfu ×10^3 | 2120 pfu ×10^3 | 720 pfu ×10^3 | approximately equal to that seen with peptide 6 | –
